Values of other authors in paper PMC3156379 (Bioorganic & medicinal chemistry letters, 2011).

Assays:
MAG = molecular target: T1, MAG (Homo sapiens, UniProt P20916); settings: read-out: Kd for MAG; structures β-linked to synthetic aglycons
T1 sequence (P20916 20-626): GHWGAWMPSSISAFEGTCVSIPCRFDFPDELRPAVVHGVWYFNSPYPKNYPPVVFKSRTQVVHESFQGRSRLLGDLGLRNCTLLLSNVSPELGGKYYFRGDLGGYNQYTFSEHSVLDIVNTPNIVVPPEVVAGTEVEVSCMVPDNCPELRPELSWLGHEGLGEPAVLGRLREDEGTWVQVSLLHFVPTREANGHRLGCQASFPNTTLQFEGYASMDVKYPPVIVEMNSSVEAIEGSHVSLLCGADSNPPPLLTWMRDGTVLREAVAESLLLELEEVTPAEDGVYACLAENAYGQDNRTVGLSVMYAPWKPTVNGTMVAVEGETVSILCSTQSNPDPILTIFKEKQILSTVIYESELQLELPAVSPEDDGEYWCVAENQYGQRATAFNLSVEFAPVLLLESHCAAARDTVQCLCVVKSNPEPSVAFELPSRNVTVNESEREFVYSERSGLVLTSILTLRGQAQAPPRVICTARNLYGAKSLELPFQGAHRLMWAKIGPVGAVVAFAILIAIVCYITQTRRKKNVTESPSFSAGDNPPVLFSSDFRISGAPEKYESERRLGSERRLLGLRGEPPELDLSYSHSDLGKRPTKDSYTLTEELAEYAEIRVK

[1] = test system: MAG inhibition of neurite outgrowth; settings: in vitro cell culture model

Row | SMILES | Kd (MAG) | reversing MAG inhibition of neurite outgrowth [1]
1 | CC(=O)N[C@H]1[C@H](OCC[Si](C)(C)C)O[C@H](CO[C@]2(C(=O)O)C[C@H](O)[C@@H](NC(C)=O)[C@H]([C@H](O)[C@H](O)CO)O2)[C@H](O)[C@@H]1O[C@@H]1O[C@H](CO)[C@H](O)[C@H](O[C@]2(C(=O)O)C[C@H](O)[C@@H](NC(C)=O)[C@H]([C@H](O)[C@H](O)CO)O2)[C@H]1O [Compound 1] | 820 µM | –
2 | COC(=O)[C@@H](NC(C)=O)[C@@H](C)O[C@H]1O[C@H](CO)[C@H](O)[C@H](O[C@@H]2O[C@H](CO)[C@H](O)[C@H](O[C@]3(C(=O)[O-])C[C@H](O)[C@@H](NC(C)=O)[C@H]([C@H](O)[C@H](O)CO)O3)[C@H]2O)[C@H]1NC(C)=O.[Na+] [Compound 11a, sialyl-T-antigen] | – | exhibited activity for reversing MAG inhibition of neurite outgrowth
